Test results from patent US5635349A, “High-throughput screening assay for inhibitors of nucleic acid polymerases” (Tularik, Inc., priority 1994, dated 1997).
Where “and” joins values, the source holds several entries; their conditions need not be identical. Equal entries are not always repeated.

Columns and labels:
[1] = molecular target: E. coli. RNA polymerase holoenzyme supplemented with additional recombinant sigma 70 (Escherichia coli, UniProt P00579+P0A7Z4+P0A8T7+P0A8V2); assay: Prokaryotic (E. coli) RNA Polymerase Assay (Promoter Specific); assay type: biochemical; conditions: positive control at 20 ug/ml, column 12 rows A and B, plates #1 and #2
Text: Prokaryotic (E. coli) RNA Polymerase Assay (Promoter Specific)
In this example, the targeted polymerase is the E. coli. RNA polymerase holoenzyme (α2 ββ'[…] ) supplemented with additional recombinant sigma 70 to increase the percentage of promoter specific transcription over non-specific elongation. GTP is omitted from the assay mixture. The substrate is a pBR-based plasmid with sigma 70, -10+-30 recognition sequences and a 260 nt G-free cassette
1. Make 1.45× assay buffer from 5× stock (1× final with extract and enzyme added). Add fresh components (polyethyleneglycol (PEG), dithiothreitol (DTT), and DNA) to final 1x solution; 50 mM Tris-Ac at pH 7.8, 100 μm ATP, 100 μM UTP, 1 μM CTP, 20 μg Bovine Serum Albumin/80 μl, PEG 3%, plasmid DNA template (described above), 0.3-0.5 μg/80 μl (from dose response), 2 mM DTT. Filter using 0.45 μm filter.
2. Make 1× storage buffer (50 mM Tris-Ac, 100 mM KAc, 100 mM MgCl2, 0.25 mg/ml BSA, 5 mM DTT). Add enzyme and [[…]]-CTP to a concentration such that there are about 80-100K cpm CTP in 15 μl, and enough enzyme (from dose response) to get 3000 cpm incorporated.
(§1) 3. Add 60 μl of assay buffer to filterplate.
(§2) 4. Add 8 μl of extract or compounds to filterplate.
5. Add 15 μl of ^33 P CTP+enzyme to filterplate. Shake 10 min.
(§3) 6. Incubate 45 min at 34° C.
7. Add 100 μl of DEAE Sephacell (Pharmacia) beads (20% slurry in 60% methanol, 20 mM EDTA, 0.02% NP-40). […]

[2] = test system: Eukaryotic (Yeast) RNA Polymerase II; assay: Eukaryotic (Yeast) RNA Polymerase II Assay (Promoter Nonspecific); assay type: biochemical, Candida; conditions: positive control at 20 ug/ml, column 12 rows A and B, plates #1 and #2
Procedure: Eukaryotic (Yeast) RNA Polymerase II Assay (Promoter Nonspecific)
1. Make 1.45× assay buffer from 5× stock (1× final with extract and enzyme added). Add fresh components (PEG, DTT, and MnCl2) to final 1× solution: 50 mM Tris-Acetate at pH 7.8, 50 mM KAc, 0.4 mM ATP, 0.2 mM GTP and UTP, 1 μM CTP, 20 μg BSA/80 μl, PEG 3%, single stranded DNA, 0.2 μg/80 μl, 2 mM DTT, and 2 mM MnCl2. Filtrate using 0.45 μm filter.
2. Make 1× storage buffer (50 mM Tris-Ac, 100 mM KAc, 0.25 mg/ml BSA, 5 mM DTT). Add enzyme and [α-^33 P]-CTP to a concentration such that there are about 80-100 CK cpm of hot CTP in 15 μl, and enough enzyme (from dose response) to get 3000 cpm incorporated.
as §1, §2
5. Add 15 μl hot CTP+enzyme to filterplate. Shake 10 min.
as §3
7. Add 100 μl of DEAE beads (20% slurry in 60% methanol, 20 mM EDTA, 0.02% NP-40). Incubate 1 hr.
8. Wash 5 times (300 μl each) with 0.5M dibasic NaPi, 0.5% NP-40, 10% ethanol.
9. Seal bottom, add 160 μl cocktail, seal top, and count.
Column 1, rows A-D of both plate #1 and #2 are background counts. Column 1, rows E-H of both plate #1 and #2 are counts obtained without the additon of label. Column 12, rows A and B of both plate #1 and #2 are positive controls using the eukaryotic RNA polymerase II inhibitor α-amanitinat 20 ug/ml. […]

Sequence of E. coli. RNA polymerase holoenzyme supplemented with additional recombinant sigma 70 (P0A7Z4 whole entry): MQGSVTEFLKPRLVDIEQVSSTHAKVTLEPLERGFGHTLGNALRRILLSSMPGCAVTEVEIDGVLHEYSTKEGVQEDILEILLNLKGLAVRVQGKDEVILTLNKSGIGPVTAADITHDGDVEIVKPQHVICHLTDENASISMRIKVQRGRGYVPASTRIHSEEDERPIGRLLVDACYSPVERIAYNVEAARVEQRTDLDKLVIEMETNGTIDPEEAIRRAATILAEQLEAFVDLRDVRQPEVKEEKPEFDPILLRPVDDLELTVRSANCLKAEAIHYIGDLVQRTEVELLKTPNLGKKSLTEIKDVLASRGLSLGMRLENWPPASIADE
Sequence of E. coli. RNA polymerase holoenzyme supplemented with additional recombinant sigma 70 (P0A8V2 whole entry): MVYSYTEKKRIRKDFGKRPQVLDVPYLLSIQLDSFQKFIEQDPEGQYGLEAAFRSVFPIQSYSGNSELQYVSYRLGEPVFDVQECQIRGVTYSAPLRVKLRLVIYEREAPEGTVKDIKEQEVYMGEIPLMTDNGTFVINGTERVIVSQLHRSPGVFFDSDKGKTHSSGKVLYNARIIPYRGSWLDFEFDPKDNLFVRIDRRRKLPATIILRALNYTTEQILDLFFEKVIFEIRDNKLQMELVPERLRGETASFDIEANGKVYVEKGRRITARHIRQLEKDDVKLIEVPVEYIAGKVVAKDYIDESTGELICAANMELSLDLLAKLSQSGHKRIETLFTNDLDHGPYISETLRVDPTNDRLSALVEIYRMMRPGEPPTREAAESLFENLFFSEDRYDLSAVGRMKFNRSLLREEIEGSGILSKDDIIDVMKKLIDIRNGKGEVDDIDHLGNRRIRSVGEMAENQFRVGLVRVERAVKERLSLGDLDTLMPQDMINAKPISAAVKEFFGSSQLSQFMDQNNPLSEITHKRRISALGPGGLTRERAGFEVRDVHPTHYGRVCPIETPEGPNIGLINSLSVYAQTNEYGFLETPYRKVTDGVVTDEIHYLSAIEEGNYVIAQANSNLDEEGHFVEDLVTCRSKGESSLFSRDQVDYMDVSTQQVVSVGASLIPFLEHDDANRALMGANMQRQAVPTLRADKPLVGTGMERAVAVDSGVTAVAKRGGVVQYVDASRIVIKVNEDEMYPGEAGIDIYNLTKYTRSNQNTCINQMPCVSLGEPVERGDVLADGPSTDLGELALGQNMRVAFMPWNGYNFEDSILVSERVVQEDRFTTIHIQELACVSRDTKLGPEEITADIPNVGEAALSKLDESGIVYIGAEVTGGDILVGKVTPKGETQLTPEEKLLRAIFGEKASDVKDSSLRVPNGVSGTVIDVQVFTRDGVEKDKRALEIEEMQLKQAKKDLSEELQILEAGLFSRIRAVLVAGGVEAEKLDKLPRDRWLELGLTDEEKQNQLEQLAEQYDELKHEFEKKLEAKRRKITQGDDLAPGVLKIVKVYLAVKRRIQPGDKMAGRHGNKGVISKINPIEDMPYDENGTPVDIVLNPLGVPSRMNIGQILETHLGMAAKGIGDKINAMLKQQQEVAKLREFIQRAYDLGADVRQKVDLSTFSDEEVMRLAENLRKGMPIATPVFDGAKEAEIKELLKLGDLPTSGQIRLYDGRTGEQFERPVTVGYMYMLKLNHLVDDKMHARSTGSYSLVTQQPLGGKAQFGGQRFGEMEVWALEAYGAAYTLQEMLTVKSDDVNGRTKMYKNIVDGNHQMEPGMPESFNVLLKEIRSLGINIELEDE
Sequence of E. coli. RNA polymerase holoenzyme supplemented with additional recombinant sigma 70 (P0A8T7 whole entry): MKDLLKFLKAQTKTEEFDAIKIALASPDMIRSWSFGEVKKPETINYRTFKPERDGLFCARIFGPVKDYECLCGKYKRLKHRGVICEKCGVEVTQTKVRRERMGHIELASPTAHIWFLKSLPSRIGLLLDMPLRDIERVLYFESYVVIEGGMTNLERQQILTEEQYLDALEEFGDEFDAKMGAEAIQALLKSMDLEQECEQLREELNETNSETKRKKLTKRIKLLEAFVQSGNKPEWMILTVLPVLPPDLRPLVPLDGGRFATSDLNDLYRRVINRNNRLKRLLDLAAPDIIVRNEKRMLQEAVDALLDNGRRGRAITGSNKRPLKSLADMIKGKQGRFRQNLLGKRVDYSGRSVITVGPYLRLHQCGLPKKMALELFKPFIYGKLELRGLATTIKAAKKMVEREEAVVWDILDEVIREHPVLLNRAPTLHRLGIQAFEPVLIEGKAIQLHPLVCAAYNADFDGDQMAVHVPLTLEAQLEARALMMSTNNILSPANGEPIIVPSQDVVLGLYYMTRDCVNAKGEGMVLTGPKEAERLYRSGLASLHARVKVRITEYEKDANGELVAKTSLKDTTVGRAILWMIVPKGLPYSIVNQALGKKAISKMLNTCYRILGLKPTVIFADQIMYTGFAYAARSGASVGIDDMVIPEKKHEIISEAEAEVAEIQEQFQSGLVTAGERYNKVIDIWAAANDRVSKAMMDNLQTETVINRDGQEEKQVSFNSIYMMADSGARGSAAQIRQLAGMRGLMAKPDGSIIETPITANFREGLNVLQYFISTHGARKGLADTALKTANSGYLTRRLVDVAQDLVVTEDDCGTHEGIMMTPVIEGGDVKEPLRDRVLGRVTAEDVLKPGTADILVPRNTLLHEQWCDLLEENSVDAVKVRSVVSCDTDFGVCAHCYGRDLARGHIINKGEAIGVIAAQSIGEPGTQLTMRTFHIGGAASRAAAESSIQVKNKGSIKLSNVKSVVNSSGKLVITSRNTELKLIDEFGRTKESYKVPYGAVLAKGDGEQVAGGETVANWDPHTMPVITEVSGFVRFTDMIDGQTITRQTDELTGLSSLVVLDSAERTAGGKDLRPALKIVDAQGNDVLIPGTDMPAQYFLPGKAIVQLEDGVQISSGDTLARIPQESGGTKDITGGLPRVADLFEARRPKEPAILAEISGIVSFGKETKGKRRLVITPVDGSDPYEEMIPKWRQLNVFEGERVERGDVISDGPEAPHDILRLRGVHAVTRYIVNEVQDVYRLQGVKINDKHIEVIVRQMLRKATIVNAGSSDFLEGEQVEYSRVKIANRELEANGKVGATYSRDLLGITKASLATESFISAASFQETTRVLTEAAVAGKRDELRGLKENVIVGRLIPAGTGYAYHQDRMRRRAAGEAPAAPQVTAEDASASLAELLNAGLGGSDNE
Sequence of E. coli. RNA polymerase holoenzyme supplemented with additional recombinant sigma 70 (P00579 whole entry): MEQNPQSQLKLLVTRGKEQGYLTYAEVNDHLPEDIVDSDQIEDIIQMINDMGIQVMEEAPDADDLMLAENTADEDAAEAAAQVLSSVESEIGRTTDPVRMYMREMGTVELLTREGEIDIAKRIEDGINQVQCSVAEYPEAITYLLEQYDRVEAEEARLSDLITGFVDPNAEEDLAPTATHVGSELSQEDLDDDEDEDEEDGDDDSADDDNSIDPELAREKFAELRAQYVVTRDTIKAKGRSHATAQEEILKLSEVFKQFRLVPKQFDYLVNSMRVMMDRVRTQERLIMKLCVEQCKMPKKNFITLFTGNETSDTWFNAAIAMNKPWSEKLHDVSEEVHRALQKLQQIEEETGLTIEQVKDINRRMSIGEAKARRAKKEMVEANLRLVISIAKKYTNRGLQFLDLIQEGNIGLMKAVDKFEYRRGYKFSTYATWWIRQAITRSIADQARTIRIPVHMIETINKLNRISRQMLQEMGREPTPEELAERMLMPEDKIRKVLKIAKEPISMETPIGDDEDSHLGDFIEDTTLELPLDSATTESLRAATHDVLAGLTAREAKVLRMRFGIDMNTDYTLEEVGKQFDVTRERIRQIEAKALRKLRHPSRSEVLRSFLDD

SMILES: CO[C@H]1/C=C/O[C@@]2(C)Oc3c(C)c(O)c4c(O)c(c(/C=N/N5CCN(C)CC5)c(O)c4c3C2=O)NC(=O)/C(C)=C\C=C\[C@H](C)[C@H](O)[C@@H](C)[C@@H](O)[C@@H](C)[C@H](OC(C)=O)[C@@H]1C [rifampin]
- CPM A (label incorporated into transcript) [1]: 717.00 CPM and 578.50 CPM and 452.50 CPM and 605.50 CPM

SMILES: CCC(C)C1NC(=O)CNC(=O)C2Cc3c([nH]c4cc(O)ccc34)[S+]([O-])CC(NC(=O)CNC1=O)C(=O)NC(CC(N)=O)C(=O)N1CC(O)CC1C(=O)NC(C(C)C(O)CO)C(=O)N2 (stereo not drawn) [α-amanitin]
- CPM A (label incorporated into transcript) [2]: 6477.00 CPM and 6882.00 CPM and 6999.00 CPM and 7028.50 CPM
